Results: patent US8173645B2 (Takeda San Diego, Inc., priority 2007, dated 2012)

Target: T1, glucokinase (GK), residues 12-465 of the human enzyme (Homo sapiens, UniProt P35557)
T1 construct: I.D. No. 1 corresponds to residues 12-465 of glucokinase; made in house; host or cells: E. coli DH10b-Tlr
T1 sequence (P35557 with tags, fused parts or gaps isoform P35557-2): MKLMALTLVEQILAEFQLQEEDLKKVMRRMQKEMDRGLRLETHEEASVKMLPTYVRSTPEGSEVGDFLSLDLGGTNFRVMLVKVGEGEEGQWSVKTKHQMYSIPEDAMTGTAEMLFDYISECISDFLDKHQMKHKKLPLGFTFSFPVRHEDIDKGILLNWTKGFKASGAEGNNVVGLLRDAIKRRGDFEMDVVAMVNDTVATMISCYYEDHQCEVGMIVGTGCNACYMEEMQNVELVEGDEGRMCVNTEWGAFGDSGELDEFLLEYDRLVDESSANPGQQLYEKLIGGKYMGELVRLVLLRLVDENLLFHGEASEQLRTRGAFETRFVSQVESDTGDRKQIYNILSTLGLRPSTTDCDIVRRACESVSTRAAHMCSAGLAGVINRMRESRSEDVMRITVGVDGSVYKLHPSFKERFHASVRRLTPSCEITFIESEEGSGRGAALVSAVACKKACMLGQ
Experiment: Enzymatic glucokinase activity assay (KinaseGlo luminescence, ATP consumption)
Assay type: biochemical
Settings: 5 μM ATP, 5 mM Glucose; for EC50: GK activation, Kact = concentration giving 50% of the maximal increase in GK activity, read-out: pKact; for Emax: calculated maximal gain in GK enzyme activity at a saturating concentration of the compound, read-out: % ACTmax
Method in brief: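 Activation measured as ATP consumption: residual ATP detected by KinaseGlo luminescence after 60 min at room temperature with 5 μM ATP and 5 mM glucose (Hepes pH 7.2, MgCl2, Brij35, DTT, 2% DMSO). Enzyme was recombinant FLAG-tagged protein from E. coli. Eleven-point twofold series were fitted nonlinearly for pKact and % ACTmax.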

Row | EC50 [µM] | Emax [%] | Compound
1 | ≤ 0.631 | 97.1 to 107 | CN1CCOc2cc(S(=O)(=O)N3CCN([C@@H](CC4CCCCC4)C(=O)Nc4nccs4)C(=O)C3)ccc21 [Example 44, (S)-3-cyclohexyl-2-(4-(4-methyl-3,4-dihydro-2H-benzo[b][1,4]oxazin-7-ylsulfonyl)-2-oxopiperazin-1-yl)-N-(thiazol-2-yl)propanamide]
2 | ≥ 3.16 | 97.1 to 107 | CC(=O)Nc1nc(C)c(S(=O)(=O)N2CCN([C@@H](CC3CCCCC3)C(=O)Nc3nccs3)C(=O)C2)s1 [Example 197, (S)-2-(4-(2-acetamido-4-methylthiazol-5-ylsulfonyl)-2-oxopiperazin-1-yl)-3-cyclohexyl-N-(thiazol-2-yl)propanamide]
3 | 1.58 to 2.51 | 74.1 to 97 | COc1cccc(C[C@@H](C(=O)Nc2nccs2)N2CCN(S(=O)(=O)C3CC3)CC2=O)c1 [Example 4, (S)-2-(4-(cyclopropylsulfonyl)-2-oxopiperazin-1-yl)-3-(3-methoxyphenyl)-N-(thiazol-2-yl)propanamide]
4 | 0.794 to 1.26 | 97.1 to 107 | O=C(Nc1nccs1)[C@H](CC1CCCCC1)N1CCN(C(=S)NCc2cccc(F)c2)CC1=O [Example 119, (S)-3-cyclohexyl-2-(4-(3-fluorobenzylcarbamothioyl)-2-oxopiperazin-1-yl)-N-(thiazol-2-yl)propanamide]
5 | 0.794 to 1.26 | ≤ 74 | COc1cc(C)c(S(=O)(=O)N2CCN([C@@H](CC3CCCCC3)C(=O)Nc3nccs3)C(=O)C2)c(C)c1C [Example 182, (S)-3-cyclohexyl-2-(4-(4-methoxy-2,3,6-trimethylphenylsulfonyl)-2-oxopiperazin-1-yl)-N-(thiazol-2-yl)propanamide]
6 | 0.794 to 1.26 | 97.1 to 107 | O=C(Nc1nccs1)[C@H](CC1CCCCC1)N1CCN(C(=S)NCc2ccco2)CC1=O [Example 115, (S)-3-cyclohexyl-2-(4-(furan-2-ylmethylcarbamothioyl)-2-oxopiperazin-1-yl)-N-(thiazol-2-yl)propanamide]
7 | 0.794 to 1.26 | 97.1 to 107 | O=C(Nc1nccs1)[C@H](CC1CCCCC1)N1CCN(C(=S)NC2CCCC2)CC1=O [Example 128, (S)-3-cyclohexyl-2-(4-(cyclopentylcarbamothioyl)-2-oxopiperazin-1-yl)-N-(thiazol-2-yl)propanamide]
8 | ≥ 3.16 | 97.1 to 107 | O=C(Nc1nccs1)[C@H](CC1CCCCC1)N1CCN(C(=S)Nc2ccc(Cl)cc2)CC1=O [Example 125, (S)-2-(4-(4-chlorophenylcarbamothioyl)-2-oxopiperazin-1-yl)-3-cyclohexyl-N-(thiazol-2-yl)propanamide]
9 | ≥ 3.16 | 74.1 to 97 | O=C(Nc1nccs1)[C@H](CC1CCCCC1)N1CCN(C(=O)Nc2cccc3ccccc23)CC1=O [Example 77, (S)-4-(3-cyclohexyl-1-oxo-1-(thiazol-2-ylamino)propan-2-yl)-N-(naphthalen-1-yl)-3-oxopiperazine-1-carboxamide]
10 | 0.794 to 1.26 | ≤ 74 | O=C(Nc1nccs1)[C@H](CC1CCCCC1)N1CCN(S(=O)(=O)c2ccc(Br)c(Br)c2)CC1=O [Example 231, (S)-3-cyclohexyl-2-(4-(3,4-dibromophenylsulfonyl)-2-oxopiperazin-1-yl)-N-(thiazol-2-yl)propanamide]
11 | 0.794 to 1.26 | 74.1 to 97 | O=C(Nc1nccs1)[C@H](CC1CCCCC1)N1CCN(S(=O)(=O)c2ccc3c(c2)CCO3)CC1=O [Example 102, (S)-3-cyclohexyl-2-(4-(2,3-dihydrobenzofuran-5-ylsulfonyl)-2-oxopiperazin-1-yl)-N-(thiazol-2-yl)propanamide]
12 | 0.794 to 1.26 | 97.1 to 107 | COC(=O)c1cc(S(=O)(=O)N2CCN([C@@H](CC3CCCCC3)C(=O)Nc3nccs3)C(=O)C2)oc1C [Example 159, (S)-methyl 5-(4-(3-cyclohexyl-1-oxo-1-(thiazol-2-ylamino)propan-2-yl)-3-oxopiperazin-1-ylsulfonyl)-2-methylfuran-3-carboxylate]
13 | 1.58 to 2.51 | 108 to 119 | Cc1ccc(S(=O)(=O)N2CCN([C@@H](CC3CCCCC3)C(=O)Nc3nccs3)C(=O)C2)cc1 [Example 202, (S)-3-cyclohexyl-2-(2-oxo-4-tosylpiperazin-1-yl)N-(thiazol-2-yl)propanamide]
14 | 1.58 to 2.51 | ≤ 74 | O=C(Nc1nccs1)[C@H](CC1CCCCC1)N1CCN(S(=O)(=O)c2ccc(-c3ccno3)s2)CC1=O [Example 174, (S)-3-cyclohexyl-2-(4-(5-(isoxazol-5-yl)thiophen-2-ylsulfonyl)-2-oxopiperazin-1-yl)-N-(thiazol-2-yl)propanamide]
15 | ≥ 3.16 | ≤ 74 | O=C(Nc1nccs1)[C@H](CC1CCCCC1)N1CCN(C(=O)Nc2ccc(OCc3ccccc3)cc2)CC1=O [Example 146, (S)-N-(4-(benzyloxy)phenyl)-4-(3-cyclohexyl-1-oxo-1-(thiazol-2-ylamino)propan-2-yl)-3-oxopiperazine-1-carboxamide]
16 | 0.794 to 1.26 | 108 to 119 | O=C(Nc1nccs1)[C@H](CC1CCCCC1)N1CCN(S(=O)(=O)c2ccc(F)cc2F)CC1=O [Example 58, (S)-3-cyclohexyl-2-(4-(2,4-difluorophenylsulfonyl)-2-oxopiperazin-1-yl)-N-(thiazol-2-yl)propanamide]
17 | 0.794 to 1.26 | 108 to 119 | O=C(Nc1nccs1)[C@H](CC1CCCCC1)N1CCN(C(=S)NCc2ccc(F)cc2)CC1=O [Example 120, (S)-3-cyclohexyl-2-(4-(4-fluorobenzylcarbamothioyl)-2-oxopiperazin-1-yl)-N-(thiazol-2-yl)propanamide]
18 | ≤ 0.631 | 74.1 to 97 | O=C(Nc1nccs1)[C@H](CC1CCCCC1)N1CCN(S(=O)(=O)c2cc(Cl)cc(Cl)c2)CC1=O [Example 57, (S)-3-cyclohexyl-2-(4-(3,5-dichlorophenylsulfonyl)-2-oxopiperazin-1-yl)-N-(thiazol-2-yl)propanamide]
19 | ≤ 0.631 | 108 to 119 | Cc1cc(S(=O)(=O)N2CCN([C@@H](CC3CCCCC3)C(=O)Nc3nccs3)C(=O)C2)c(C)o1 [Example 181, (S)-3-cyclohexyl-2-(4-(2,5-dimethylfuran-3-ylsulfonyl)-2-oxopiperazin-1-yl)-N-(thiazol-2-yl)propanamide]
20 | ≤ 0.631 | 74.1 to 97 | O=C(Nc1ncc(Cl)s1)[C@H](CC1CCOCC1)N1CCN(S(=O)(=O)c2cccs2)CC1=O [Example 37, (S)-N-(5-chlorothiazol-2-yl)-2-(2-oxo-4-(thiophen-2-ylsulfonyl)piperazin-1-yl)-3-(tetrahydro-2H-pyran-4-yl)propanamide]
21 | ≤ 0.631 | 108 to 119 | O=C(Nc1ncc(Cl)s1)[C@H](CC1CCOCC1)N1CCN(S(=O)(=O)c2cccc(F)c2)CC1=O [Example 150, (S)-N-(5-chlorothiazol-2-yl)-2-(4-(3-fluorophenylsulfonyl)-2-oxopiperazin-1-yl)-3-(tetrahydro-2H-pyran-4-yl)propanamide]
22 | 1.58 to 2.51 | 97.1 to 107 | O=C(Nc1nccs1)[C@H](CC1CCCCC1)N1CCN(C(=S)NCCN2CCOCC2)CC1=O [Example 117, (S)-3-cyclohexyl-2-(4-(2-morpholinoethylcarbamothioyl)-2-oxopiperazin-1-yl)-N-(thiazol-2-yl)propanamide]
23 | 0.794 to 1.26 | ≥ 119 | CC(C)C[C@@H](C(=O)Nc1ncc(Cl)s1)N1CCN(S(=O)(=O)C2CC2)CC1=O [Example 10, (S)—N-(5-chlorothiazol-2-yl)-2-(4-(cyclopropylsulfonyl)-2-oxopiperazin-1-yl)-4-methylpentanamide]
24 | 1.58 to 2.51 | 108 to 119 | O=C(Nc1nccs1)[C@H](CC1CCCCC1)N1CCN(S(=O)(=O)Cc2cccc(Cl)c2)CC1=O [Example 63, (S)-2-(4-(3-chlorobenzylsulfonyl)-2-oxopiperazin-1-yl)-3-cyclohexyl-N-(thiazol-2-yl)propanamide]
25 | ≥ 3.16 | ≤ 74 | Cn1nc(-c2ccc(S(=O)(=O)N3CCN([C@@H](CC4CCCCC4)C(=O)Nc4nccs4)C(=O)C3)s2)cc1C(F)(F)F [Example 175, (S)-3-cyclohexyl-2-(4-(5-(1-methyl-5-(trifluoromethyl)-1H-pyrazol-3-yl)thiophen-2-ylsulfonyl)-2-oxopiperazin-1-yl)-N-(thiazol-2-yl)propanamide]
26 | ≤ 0.631 | ≤ 74 | Cn1nc(C(F)(F)F)cc1-c1ccc(S(=O)(=O)N2CCN([C@@H](CC3CCCCC3)C(=O)Nc3nccs3)C(=O)C2)s1 [Example 193, (S)-3-cyclohexyl-2-(4-(5-(1-methyl-3-(trifluoromethyl)-1H-pyrazol-5-yl)thiophen-2-ylsulfonyl)-2-oxopiperazin-1-yl)-N-(thiazol-2-yl)propanamide]
27 | ≤ 0.631 | 108 to 119 | O=C(Nc1nccs1)[C@H](CC1CCCCC1)N1CCN(S(=O)(=O)c2ccc(F)c(F)c2)CC1=O [Example 103, (S)-3-cyclohexyl-2-(4-(3,4-difluorophenylsulfonyl)-2-oxopiperazin-1-yl)-N-(thiazol-2-yl)propanamide]
